Results as given in US8367642B2, “Methods of preventing or treating diseases and conditions using complex carbohydrates” (Dermal Research Laboratories, Inc., priority 2000, dated 2013).

How the values were obtained:
lick granulomas = assay: Lick granuloma of a Labrador retriever (Example 12); format: in vivo, dog; settings: cortisone injections and hydrocortisone creams
Protocol: An eleven year old Labrador retriever had suffered from lick granulomas for at least 3 years. […] This dog's granuloma was located on the left hind leg above the pasturn. The swelling around the leg measured 8 inches in diameter and the open wound measured 4×3 inches. […] This dog was injected with 10 mg of sodium hyaluronate having a molecular weight ranging from 30,000 to 400,000 (1.0 mL intramuscularly—equivalent to 10 mg). The open wound began to heal. This injection was followed up with topical application of a low molecular weight hyaluronic acid prepared by making a 1% (wt/vol) solution of hyaluronic acid (Medex Ltd) containing 1% Wintergreen Oil (Loranne Oil), 1% Spearmint Oil (Loranne Oil) and 0.5% Peppermint Oil (Loranne Oil). The topical formulation was applied at least two times per day. […] The dog has not licked this area since treatment began. Therefore, the complex carbohydrates of the present invention are able to successfully treat lick granulomas (a previously untreatable condition of dogs) and eliminate the cause of the licking.

chronic eczema = assay: Chronic eczema with yeast infection (Example 14); parameters: species or system human; settings: in vivo
Source text: A person suffered from chronic eczema—scaly and red areas on their neck and arms. They had also been diagnosed with a yeast infection associated with the eczema. […] They initially used a topical preparation prepared according to this invention. This contained a mixture of low and high molecular weight sodium hyaluronate (prepared as in EXAMPLE 1) mixed with 1% Wintergreen Oil, 1% Spearmint Oil, and 0.5% Peppermint Oil. They applied it topically for four weeks. […] However, there was still itching and redness. They then began to orally take the 1% mixture, of low and high molecular weight sodium hyaluronate described in example 1. They reported that within 2 weeks all signs of the eczema had disappeared, the itching was gone and they felt better than they had felt for years. The oral dose required was 5 mg TID for this 91 pound person. Therefore, the dose was […].

interstitial cystitis = assay: Interstitial cystitis patient (Example 8); format: in vivo, human; settings: 100 mg per day of macrodantin and 20 mg per day of feldene, earlier treatment
Protocol: Additionally, they had taken 200 mg TID of Elmiron to reduce the inflammation in the bladder lining. […] In order to sleep they took Prosed/DS, Ultram, Hydroxyzine HCl, Cardura, Amitriptyline. Sometimes all were taken at some time during the day or night. […] This patient was supplied with the mixed molecular weight preparation of sodium hyaluronate as described in EXAMPLE 1. They were also supplied with a topical preparation containing 1% wt/vol. Sodium hyaluronate at a molecular weight of <30,000 combined with 1% Oil of Wintergreen, 0.5% Spearmint Oil and 0.2% Peppermint Oil. They took 10 mg of the oral preparation 4 times per day. The last dose was taken before going to bed. Additionally, at bedtime, they rubbed their lower abdomen (over the bladder) with the topical preparation.

anti-coagulant activity = settings: cited from earlier work
joint pain = settings: oral doses between 1000 and 3000 mg/day (>15 mg/Kg); cited from earlier work
polymyositis = assay: Polymyositis in the same patient (Example 4); format: in vivo, human; settings: 50 mg daily, before hyaluronate
Protocol: A person suffering from colon cancer had been unable to tolerate their colostomy and demanded that their surgeon remove the colostomy and reconnect their colon. They refused chemotherapy. They were given a formulation of 1% sodium hyaluronate (Collaborative Laboratories, Inc) which was prepared with a mixture of molecular weights of hyaluronate (as described in EXAMPLE 1). When they began taking the hyaluronate preparation, their CEA was 70.1. They have taken the hyaluronate at a dose of 10 mg three times per day mucosally and after 6 months of treatment their CEA has dropped to 4.1. They have taken no other treatments. This patient had also suffered from polymyositis for approximately 15 years. For this condition they were taking 50 mg of Prednisone daily with little relief. […] After 6 months of treatment with hyaluronate, they have been able to reduce their Prednisone to 5 mg every other day. […] The polymyositis that was successfully treated in this example was thought to represent treatment of a disease associated with the adhesion cascade or autoimmune disease.

[1] = test system: attention deficit disorder (ADD); assay: Adult with attention deficit disorder, daily response (Example 5, FIG. 1); format: in vivo, human; settings: earlier treatment
Source text: The subject adult was a person who had suffered all their life with attention deficit disorder (ADD).
They never knew what their problem was until recently when they were diagnosed. They described their childhood as unfocused and explained that they felt as though they were in a constant mental fog—unable to think clearly, or for that matter, unable to focus on a thought at all. […] Exposure to only a few minutes in a moldy room caused this individual to become dazed, unable to think, focus or even stay awake. They had only been able to do menial jobs. They spent most of their time staring out the window with no thoughts in their mind and, even if they tried, could not focus on a thought or task. They described themself as believing all their life that they were just stupid and unable to learn. They had been to multiple physicians and psychiatrists seeking treatment with no success. They had taken Ritalin with little relief. It allowed them to function partially but they were always tired and unable to focus on anything but the simplest of tasks. They agreed to take the oral sodium hyaluronate product and their family would report how they reacted. […]
FIG. 1 plots the response of this patient while taking the compositions of the present invention. […] If there were no significant negative or positive responses during a day, the reaction rate was recorded as 0. […]

ADHD = assay: child with ADHD, behaviour scores (Example 7, FIG. 2); format: in vivo, human; settings: prescribed daily, earlier treatment
Source text: The subject child was a person who has suffered with ADHD all their life. […] Additionally, their behavior was such that they could not socialize with other children or with adults. When in contact with other children they were unable to play, often became angered and caused physical harm to others. They had been under treatment by several physicians, psychologists and allergists all their life but none were able to help their condition. The allergists determined that they had allergies to most all foods, dust, molds, soaps and just about everything in their environment. At one time they were prescribed Ritalin daily. […]
This child attended a special school in which their Teachers reported their daily activity to their parents so that they could try to monitor their eating habits. […] Their response was monitored by using the numerical score provided by their teachers and averaging it with a numerical score of their behavior at home provided by their parents. […] Their parents have commented that they have awakened in the morning and is happy, cheerful and cooperative in getting ready for school. […] If their behavior was belligerent, bossy, angry or non-cooperative they were scored as a −40 for the day. If their reactions to foods or environmental stimuli produced such a response it was recorded as a −40. If they responded as a normal person, the score was recorded as 0. […]

[2] = test system: Attention Deficit Hyperactivity Disorder (ADHD) complicated by Turret's Syndrome; assay: Treatment of a child with ADHD complicated by Turret's Syndrome (Example 2); format: in vivo, human; settings: earlier treatment, discontinued 1.5 year before
Protocol: This treatment was not complicated by concurrent treatment with drugs such as Ritalin as their parents were adverse to using this medication. Therefore, any response observed was related to the use of the complex carbohydrates of the present invention. They took 10 mg in the morning and 10 mg in the evening, using the solution as a mouthwash (holding it in their mouth for about 10 to 20 seconds and then swallowing). […] However, within 15 minutes of their receiving the missing dose, they became calm and returned to normal. This child has remained totally under control for 6 months. This had never been observed before, even when they were taking Ritalin. […] It has been concluded that a disease typically thought to be related to a nervous disorder or to allergies was treatable by the complex carbohydrates of the present invention.

Question: Which results are given for `C[C@]12CCC(=O)C=C1CC[C@@H]1[C@@H]2C(=O)C[C@@]2(C)[C@H]1CC[C@]2(O)C(=O)CO` [cortisone]?
Answer: success of earlier treatment of lick granuloma (lick granulomas): little success; effect of earlier treatment on eczema (chronic eczema): no significant effect

Question: For `CN1C(C(=O)Nc2ccccn2)=C(O)c2ccccc2S1(=O)=O` [feldene], which side effects (interstitial cystitis) is on record?
Answer: severe side effects

Question: For low molecular weight heparin, which anti-coagulant activity (anti-coagulant activity) is on record?
Answer: free of anti-coagulant activity

Question: For `C[C@]12CCC(=O)C=C1CC[C@@H]1[C@@H]2[C@@H](O)C[C@@]2(C)[C@H]1CC[C@]2(O)C(=O)CO` [hydrocortisone], which “success of earlier treatment of lick granuloma” value (lick granulomas) is on record?
Answer: little success

Question: With chondroitin sulfate as the compound, how does the “time until relief from joint pain” value (joint pain) read?
Answer: 6-9 months

Question: Which relief of polymyositis (polymyositis) does the source give for `C[C@]12C=CC(=O)C=C1CC[C@@H]1[C@@H]2C(=O)C[C@@]2(C)[C@H]1CC[C@]2(O)C(=O)CO` [Prednisone] here?
Answer: little relief

Question: Which side effects (interstitial cystitis) does the source give for `O=C1CN(/N=C/c2ccc([N+](=O)[O-])o2)C(=O)N1` [macrodantin] here?
Answer: severe side effects

Question: With `COC(=O)C(c1ccccc1)C1CCCCN1` (centres unmarked) [Ritalin] as the compound, how does the “relief of ADD” value [1] read?
Answer: little relief

Question: What about the “reaction while taking the drug” value (ADHD) of the same compound?
Answer: suffered hallucinations and became even more uncontrollable

Question: And the side effects [2]?
Answer: problems with side effects
